Marks after values point to notes of the source that are not given here.
Legend:
[1] = target: Trypsin; assay: Chromogenic substrate assay, Ki (Dixon); format: biochemical, human; settings: Trypsin; mean ± SD (n = 5)
Experimental: Chromogenic substrate assays were performed using a Labsystems IEMS (Cergy Pontoise, France) microtiter plate reader. K i values were calculated according to the method of Dixon[65]. In each assay, the compound was tested at a minimum of seven concentrations, in duplicate, to obtain an inhibition curve. The following general procedures were adopted for each assay. In a 96-well microtiter plate, 25 μL of inhibitor solution or buffer was added to 50 μL of substrate. The enzyme solution (25 μL) was added just before the plate was placed in the microtiter plate reader for 1 h at 37 °C. The hydrolysis of the substrate yields p-nitroaniline, which was continuously monitored spectrophotometrically at 405 nm. The maximal initial reaction rates were calculated and expressed as millioptical density per minute.

[2] = Ex vivo PT clotting time; format: in vivo, C57BL/6 mice; settings: mice, i.v.; for PT: 1 h after administration
Experimental: (§1) The aPTT and PT were determined using a Thrombotimer (Behnk Elektronik, Norderstedt, Germany) in accordance with the manufacturer’s instructions and as previously described. Briefly, citrated normal human plasma (90 μL) was mixed with 10 μL JJ1 and incubated for 1 min at 37 °C. Subsequently, the aPTT assay reagent (100 μL) was added, the plasma sample was incubated for an additional 1 min at 37 °C, 20 mM CaCl2 (100 μL) was added, and the clotting times were recorded. For the PT assays, citrated normal human plasma (90 μL) was mixed with 10 μL JJ1 stock solution and was incubated for 1 min at 37 °C. The PT assay reagent (200 μL), which had been pre-incubated for 10 min at 37 °C, was subsequently added and the clotting time was recorded. The PT results were expressed in seconds and as International Normalized Ratios (INR): INR = (PT sample/PT control)^ISI, where ISI = international sensitivity index. The aPTT results were also expressed in seconds. All experimental protocols (KNUH 2012-01-010) were approved by the Institutional Review Board of Kyungpook National University Hospitals (Daegu, Republic of Korea).
Male C57BL/6 mice were fasted overnight. Each compound was dissolved in 0.5% DMSO and administered by i.v. injection. One hour after administration, arterial blood samples (0.1 mL) were collected in 3.8% sodium citrate (1:10, v/v) for the ex vivo aPTT and PT determination. The clotting times were determined as described above.

[3] = Organ injury markers (biochemical safety parameters); format: in vivo, C57BL/6 mice; parameters: BUN: unit not given here
Experimental: The safety of JJ1 is another promising feature. Animal safety markers such as aspartate transaminase (AST) and alanine transaminase (ALT) (markers of hepatic injury) and creatinine and blood urea nitrogen (BUN) (markers of renal injury) were assessed with blood samples obtained at 48 h after JJ1 injection. […] Serum levels of AST, ALT, BUN, and creatinine were measured using commercial assay kits (Pointe Scientific, Linclon Park, MI).

[4] = system: HUVECs; assay: Production of thrombin on the surfaces of HUVECs; format: cell-based, human; settings: HUVECs with FVa, FXa, prothrombin
Experimental: Thrombin production by HUVECs was quantified as previously described[63],[68]. Briefly, HUVECs were pre-incubated in 300 μL of a solution containing JJ1 in 50 mM Tris-HCl buffer, 100 pM FVa, and 1 nM FXa for 10 min, followed by the addition of prothrombin to a final concentration of 1 μM. After 10 min, duplicate samples (10 μL each) were transferred into a 96-well plate containing 40 μL 0.5 M EDTA in TBS per well to terminate the prothrombin activation. Activated prothrombin was determined by the measurement of the rate of hydrolysis of S-2238 (a thrombin substrate) at 405 nm. Standard curves were prepared with known amounts of purified thrombin.

[5] = system: human plasma; assay: In vitro aPTT clotting time; format: biochemical; settings: for aPTT: in vitro
Experimental: as §1

[6] = target: Streptokinase (Homo sapiens, UniProt P00747); assay: Chromogenic substrate assay, Ki (Dixon); format: biochemical
Streptokinase, sequence (P00747 581-810 limits assumed): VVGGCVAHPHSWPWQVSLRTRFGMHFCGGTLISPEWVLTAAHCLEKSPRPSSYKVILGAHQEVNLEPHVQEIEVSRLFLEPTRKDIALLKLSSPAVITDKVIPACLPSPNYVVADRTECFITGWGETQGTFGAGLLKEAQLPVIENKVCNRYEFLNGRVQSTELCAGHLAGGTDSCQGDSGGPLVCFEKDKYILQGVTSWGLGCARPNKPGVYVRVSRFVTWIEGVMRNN

[7] = In vivo tail bleeding time; parameters: species or system C57BL/6 mice; settings: mice, i.v. injection, 1 h after administration
Experimental: Tail bleeding times were measured by using the method of Dejana et al.[63],[64]. Briefly, C57BL/6 mice were fasted overnight prior to the experiments. One hour after the i.v. administration of JJ1, the tails of the mice were transected at 2 mm from their tips. The bleeding time was defined as the time elapsed until the bleeding stopped. Bleeding times exceeding 15 min were recorded as lasting for 15 min.

[8] = target: tPA (Homo sapiens, UniProt P00750); assay: Chromogenic substrate assay, Ki (Dixon); format: biochemical
tPA, sequence (P00750 36-562): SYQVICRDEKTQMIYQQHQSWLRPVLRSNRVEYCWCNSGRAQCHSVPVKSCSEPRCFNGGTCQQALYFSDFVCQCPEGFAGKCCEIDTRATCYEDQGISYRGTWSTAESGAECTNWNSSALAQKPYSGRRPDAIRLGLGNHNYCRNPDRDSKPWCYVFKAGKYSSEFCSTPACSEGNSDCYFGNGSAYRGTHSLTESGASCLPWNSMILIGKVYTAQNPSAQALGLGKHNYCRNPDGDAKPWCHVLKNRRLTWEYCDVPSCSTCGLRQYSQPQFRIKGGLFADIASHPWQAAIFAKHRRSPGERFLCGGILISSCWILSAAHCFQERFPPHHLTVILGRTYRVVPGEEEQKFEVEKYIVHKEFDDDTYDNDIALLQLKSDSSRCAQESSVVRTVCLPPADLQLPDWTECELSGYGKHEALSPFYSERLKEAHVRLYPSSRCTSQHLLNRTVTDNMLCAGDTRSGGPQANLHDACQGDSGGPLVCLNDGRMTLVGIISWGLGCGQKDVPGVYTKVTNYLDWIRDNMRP

[9] = target: T1, thrombin (Homo sapiens, UniProt P00734); assay: Enzyme-based assay of purchased virtual screening molecules, single dose; format: biochemical; settings: single concentration of 50 μM
T1 construct: purchased Haematologic Technologies (Essex Junction, VT)
Text: Prior to the high-throughput virtual screening, we selected the best crystal structure for docking with DOCK 3.6[17] using the selected inhibitors and their physicochemically matched but topologically different decoys. […] Because the earlier enrichment of true positives is more important for high throughput SBVS, we used the value of LogAUC as a metric, selecting 2CF9-H[18] as the best structure. […] Besides, the enrichment at 1% (EF1) was 37.1. The values of LogAUC and EF1 were approximately two-fold higher than the averages (26.1 for LogAUC and 17.1 for EF1) (Figs 1 and S1). Some structures had higher AUC values than that of 2CF9-H, but the value of LogAUC was the highest for 2CF9-H (Fig. S1). The optimization necessitated the calculations of more than 2 million protein and ligand pairs. The high speed of DOCK 3.6 and the in-house Linux cluster system consisting of 128 cores efficiently managed the calculations in three days. Of the candidate molecules having the lowest scores in the high-throughput SBVS, we chose the molecules with desirable geometries and physicochemical properties by a simple manual and visual inspection. […] It is known that the scoring function of virtual screening itself is insufficient to capture such an abnormality. Table S1 and Fig. S2 list the top 40 molecules, which were selected through high-throughput SBVS; we purchased these molecules to measure enzymatic inhibitory activity.

[10] = male C57BL/6 mice, 3.06 μg/mouse, 48 h after injection

Structure (SMILES): c1ccc2c(NC3CCCC3)nc(Nc3ccncc3)nc2c1 [JJ1]
- Ki [1]: > 250 µM
- PT (INR) ([2]; 0.31 μg/mouse): 1.08 INR
- PT ([2]; 0.31 μg/mouse): 12.4 ± 0.5 s
- PT (INR) ([2]; 0.61 μg/mouse): 2.37 INR
- PT ([2]; 0.61 μg/mouse): 17.2 ± 1.4 s
- PT (INR) ([2]; 1.23 μg/mouse): 4.42* INR
- PT ([2]; 1.23 μg/mouse): 22.3 ± 0.6 s
- PT (INR) ([2]; 3.06 μg/mouse): 6.88* INR
- PT ([2]; 3.06 μg/mouse): 26.8 ± 0.4 s
- Plasma levels of AST, ALT, BUN, and creatinine compared to DMSO-treated animals ([3]; after 2 days): no significant differences
- ALT [3, 10]: 7.5 ± 0.63 IU/L
- AST [3, 10]: 15.1 ± 1.29 IU/L
- BUN [3, 10]: 17.1 ± 1.31
- Creatinine [3, 10]: 0.139 ± 0.012 mg/dL
- Production of thrombin [4]: inhibited the production of thrombin in a dose-dependent manner
- Concentration that doubled the clotting time, aPTT assay [5]: 1.66 µM
- aPTT ([5]; 0.05 μM): 23.5 ± 0.4 s
- aPTT ([5]; 0.1 μM): 23.3 ± 0.2 s
- aPTT ([5]; 0.2 μM): 24.2 ± 0.4 s
- aPTT ([5]; 0.5 μM): 32.4 ± 0.6 s
- aPTT ([5]; 1.0 μM): 41.3 ± 0.4 s
- aPTT ([5]; 2.0 μM): 50.4 ± 0.6 s
- aPTT ([5]; 5.0 μM): 51.6 ± 0.4 s
- Selectivity ratio ([6]; K i Streptokinase/K i α-thrombin): >10,000
- Ki ([6]; Streptokinase): > 250 µM
- Tail bleeding time ([7]; 0.31 μg/mouse): 30.6 ± 0.8 s
- Tail bleeding time ([7]; 0.61 μg/mouse): 37.2 ± 1.0 s
- Tail bleeding time ([7]; 1.23 μg/mouse): 44.8 ± 1.2 s
- Tail bleeding time ([7]; 3.06 μg/mouse): 52.2 ± 1.4 s
- Selectivity ratio ([8]; K i tPA/K i α-thrombin): >10,000
- Ki ([8]; tPA): > 250 µM
- Degree of inhibition in the enzyme-based assay [9]: inhibitory effects
